For this experiment, the system named is B6C3F1 mice, B16 melanoma ip, median survival T/C. Nature of the experiment: NCI In Vivo Anticancer Drug Screen. Data for tumor model B16 Melanoma (intraperitoneal) in B6C3F1 mice. The settings on record: endpoint: median survival time, higher = longer survival. As to the method:
The antitumor activity of compounds was measured in mice bearing transplantable tumors. Survival or tumor size were measured and the results are expressed as the measurement made in the treated group (T) divided by the measurement made in the vehicle treated control group (C). The tumor model used in this assay is B16 Melanoma (intraperitoneal) in B6C3F1 mice

The mark [1] stands for this setting: dose: 12.5 mg/kg/injection, schedule: Q01DX009 (ip), vehicle: saline with Tween-80.
Setting [2] is: dose: 25.0 mg/kg/injection, schedule: Q01DX009 (ip), vehicle: saline with Tween-80.
Where [3] appears, read: dose: 100.0 mg/kg/injection, schedule: Q01DX009 (ip), vehicle: saline with Tween-80.
The mark [4] stands for this setting: dose: 200.0 mg/kg/injection, schedule: Q01DX009 (ip), vehicle: saline with Tween-80.
Setting [5] is: dose: 400.0 mg/kg/injection, schedule: Q01DX009 (ip), vehicle: saline with Tween-80.
The mark [6] stands for this setting: dose: 50.0 mg/kg/injection, schedule: Q01DX009 (ip), vehicle: saline with Tween-80.
[7] abbreviates: dose: 0.75 mg/kg/injection, schedule: Q01DX009 (ip), vehicle: saline.
Setting [8] is: dose: 3.0 mg/kg/injection, schedule: Q01DX009 (ip), vehicle: saline.
Setting [9] is: dose: 1.56 mg/kg/injection, schedule: Q01DX009 (ip), vehicle: Klucel (hydroxypropylcellulose) (HPC).
[10] abbreviates: dose: 3.12 mg/kg/injection, schedule: Q01DX009 (ip), vehicle: Klucel (hydroxypropylcellulose) (HPC).
Where [11] appears, read: dose: 12.5 mg/kg/injection, schedule: Q01DX009 (ip), vehicle: Klucel (hydroxypropylcellulose) (HPC).
Setting [12] is: dose: 25.0 mg/kg/injection, schedule: Q01DX009 (ip), vehicle: Klucel (hydroxypropylcellulose) (HPC).
Setting [13] is: dose: 50.0 mg/kg/injection, schedule: Q01DX009 (ip), vehicle: Klucel (hydroxypropylcellulose) (HPC).
Where [14] appears, read: dose: 100.0 mg/kg/injection, schedule: Q01DX009 (ip), vehicle: Klucel (hydroxypropylcellulose) (HPC).

“And” between values parts separate entries of the source, which are not always exact repeats. Equal entries are not always repeated. Inconclusive results and toxic doses are left out.

In the case of `CCOC(=O)C(N)CSC(=O)NC` (stereo not given), the T/C was 103 % of control and 106 % of control (dose: 12.5 mg/kg/injection, schedule: Q01DX009 (ip), vehicle: saline); 108 % of control and 92 % of control (dose: 25.0 mg/kg/injection, schedule: Q01DX009 (ip), vehicle: saline); 103 % of control and 106 % of control (dose: 50.0 mg/kg/injection, schedule: Q01DX009 (ip), vehicle: saline); 108 % of control and 93 % of control (dose: 100.0 mg/kg/injection, schedule: Q01DX009 (ip), vehicle: saline); 109 % of control (dose: 200.0 mg/kg/injection, schedule: Q01DX009 (ip), vehicle: saline); 124 % of control (dose: 400.0 mg/kg/injection, schedule: Q01DX009 (ip), vehicle: saline).
Regarding `C=C1CCC[C@@]2(C)CC[C@@H](/C(C)=C\C=C\C(C)(C)O)C[C@H]12`, the T/C is 113 % of control (dose: 12.5 mg/kg/injection, schedule: Q01DX009 (ip), vehicle: Klucel + Tween-80); 106 % of control (dose: 25.0 mg/kg/injection, schedule: Q01DX009 (ip), vehicle: Klucel + Tween-80); 107 % of control (dose: 50.0 mg/kg/injection, schedule: Q01DX009 (ip), vehicle: Klucel + Tween-80); 112 % of control (dose: 100.0 mg/kg/injection, schedule: Q01DX009 (ip), vehicle: Klucel + Tween-80); 90 % of control (dose: 200.0 mg/kg/injection, schedule: Q01DX009 (ip), vehicle: Klucel + Tween-80).
Turning to `O=C(N/N=C/c1c(O)ccc2ccccc12)C(=O)N/N=C/c1c(O)ccc2ccccc12`, the T/C by setting is: under setting [1], 110 % of control and 94 % of control and 107 % of control; under setting [2], 111 % of control and 112 % of control and 118 % of control; under setting [3], 94 % of control.
Take `CCN(CC)CCCC(C)Nc1c2ccc(Cl)cc2nc2ccc(OC)cc12` (stereo not given): the T/C was 102 % of control (dose: 3.75 mg/kg/injection, schedule: Q01DX009 (ip), vehicle: Klucel (hydroxypropylcellulose) (HPC)); 98 % of control (dose: 7.5 mg/kg/injection, schedule: Q01DX009 (ip), vehicle: Klucel (hydroxypropylcellulose) (HPC)); 109 % of control (dose: 15.0 mg/kg/injection, schedule: Q01DX009 (ip), vehicle: Klucel (hydroxypropylcellulose) (HPC)); 121 % of control (dose: 30.0 mg/kg/injection, schedule: Q01DX009 (ip), vehicle: Klucel (hydroxypropylcellulose) (HPC)).
Turning to `CCN(CC)c1ccc(N=Nc2ccc(C)cc2)cc1`, the T/C under setting [3] was 96 % of control, the T/C under setting [4] was 93 % of control and the T/C under setting [5] is 96 % of control.
Consider `[Cl][Mn][Cl]`, for which the T/C was 115 % of control and 107 % of control (dose: 2.0 mg/kg/injection, schedule: Q01DX009 (ip), vehicle: saline); 96 % of control and 103 % of control and 106 % of control (dose: 4.0 mg/kg/injection, schedule: Q01DX009 (ip), vehicle: saline); 112 % of control and 98 % of control (dose: 8.0 mg/kg/injection, schedule: Q01DX009 (ip), vehicle: saline); 104 % of control (dose: 16.0 mg/kg/injection, schedule: Q01DX009 (ip), vehicle: saline); 155 % of control (dose: 32.0 mg/kg/injection, schedule: Q01DX009 (ip), vehicle: saline); 152 % of control and 160 % of control (dose: 64.0 mg/kg/injection, schedule: Q01DX009 (ip), vehicle: saline).
For `Cc1ccc(S(=O)(=O)NC(=O)OC23COCN2COC3)cc1`, the T/C was 112 % of control and 113 % of control under setting [1]; 108 % of control and 106 % of control under setting [2]; 118 % of control under setting [6]; 104 % of control under setting [3]; 105 % of control under setting [4]; 111 % of control and 122 % of control under setting [5].
As to `CCCCCCCCCCCCCCCCCC(=O)OCC(=O)OCC(=O)[C@]1(O)Cc2c(O)c3c(c(O)c2[C@@H](OC2CC(N)C(O)C(C)O2)C1)C(=O)c1c(OC)cccc1C3=O` (stereo not given in full), the T/C is, setting by setting: under setting [7], 160 % of control and 211 % of control; (dose: 1.5 mg/kg/injection, schedule: Q01DX009 (ip), vehicle: saline) 208 % of control and 333 % of control; under setting [8], 255 % of control and 333 % of control; (dose: 6.0 mg/kg/injection, schedule: Q01DX009 (ip), vehicle: saline) 238 % of control and 333 % of control.
With `O=C(CCl)Oc1ccc(-c2ccccc2)cc1Br`, the T/C was 98 % of control under setting [6], 90 % of control under setting [3] and 87 % of control under setting [4].
For the molecule `N#CCCCCCCCCCCC(=O)O`, the T/C was 93 % of control under setting [3], 96 % of control under setting [4] and 99 % of control under setting [5].
Take `C=CCNC(=O)c1ccccc1SC(C)=O`: the T/C by setting is: (dose: 50.0 mg/kg/injection, schedule: Q01DX009 (ip), vehicle: saline + Tween-80 + alcohol) 101 % of control; (dose: 100.0 mg/kg/injection, schedule: Q01DX009 (ip), vehicle: saline + Tween-80 + alcohol) 112 % of control and 103 % of control; under setting [3], 91 % of control; (dose: 200.0 mg/kg/injection, schedule: Q01DX009 (ip), vehicle: saline + Tween-80 + alcohol) 119 % of control; under setting [4], 104 % of control; (dose: 400.0 mg/kg/injection, schedule: Q01DX009 (ip), vehicle: saline + Tween-80 + alcohol) 114 % of control. In addition, under setting [5], the T/C was 116 % of control.
`Clc1ccc(C[P+](c2ccccc2)(c2ccccc2)c2ccccc2)cc1Cl`: the T/C (dose: 0.78 mg/kg/injection, schedule: Q01DX009 (ip), vehicle: Klucel (hydroxypropylcellulose) (HPC)) is 99 % of control; the T/C under setting [9] was 107 % of control; the T/C under setting [10] was 103 % of control; the T/C under setting [11] was 88 % of control.
As to `Cn1c(N)c(C(=O)/C=C/c2ccccc2)c(=O)n(C)c1=O`, the T/C is 101 % of control under setting [9]; 107 % of control under setting [10]; 106 % of control (dose: 6.25 mg/kg/injection, schedule: Q01DX009 (ip), vehicle: Klucel (hydroxypropylcellulose) (HPC)); 104 % of control under setting [11]; 105 % of control under setting [12]; 116 % of control under setting [13].
In the case of `N#CC(C#N)=NNc1ccc2cn[nH]c2c1`, the T/C by setting is: under setting [11], 108 % of control; under setting [12], 100 % of control; under setting [13], 106 % of control; under setting [14], 102 % of control.
As for `Cc1ccc(C(CCCl)OC(C)C)cc1` (stereo not given), the T/C reads like this: under setting [3], 97 % of control; under setting [4], 94 % of control; under setting [5], 94 % of control.
For `C=C(NC(=O)C(=C)NC(=O)c1csc(C2=NC3c4csc(n4)C4NC(=O)c5csc(n5)C(C(C)(O)C(C)O)NC(=O)C5CSC(=N5)/C(=C/C)NC(=O)C(C(C)O)NC(=O)c5csc(n5)C3(CC2)NC(=O)C(C)NC(=O)C(=C)NC(=O)C(C)NC(=O)C(C(C)CC)NC2C=Cc3c(C(C)O)cc(nc3C2O)C(=O)OC4C)n1)C(N)=O` (stereo not given), the T/C is 116 % of control under setting [11]; 104 % of control under setting [12]; 105 % of control under setting [13]; 107 % of control under setting [14]; 96 % of control (dose: 200.0 mg/kg/injection, schedule: Q01DX009 (ip), vehicle: Klucel (hydroxypropylcellulose) (HPC)); 99 % of control (dose: 400.0 mg/kg/injection, schedule: Q01DX009 (ip), vehicle: Klucel (hydroxypropylcellulose) (HPC)).
Consider `COc1cc(NS(C)(=O)=O)ccc1Nc1c2ccc(Cl)cc2nc2c(OC)cccc12`, for which the T/C was 165 % of control (dose: 2.0 mg/kg/injection, schedule: Q01DX005 (ip), vehicle: water); 111 % of control (dose: 2.0 mg/kg/injection, schedule: Q01DX005 (iv), vehicle: water); 101 % of control (dose: 4.0 mg/kg/injection, schedule: Q01DX001 (iv), vehicle: water); 174 % of control (dose: 4.0 mg/kg/injection, schedule: Q01DX005 (ip), vehicle: water); 102 % of control (dose: 8.0 mg/kg/injection, schedule: Q01DX001 (iv), vehicle: water); 178 % of control (dose: 8.0 mg/kg/injection, schedule: Q01DX005 (ip), vehicle: water). Also, the T/C (dose: 16.0 mg/kg/injection, schedule: Q01DX001 (iv), vehicle: water) is 100 % of control.
With `[Cl][Pt+2][Cl].[NH-]C1CCC1.[NH2-]`, the T/C under setting [7] is 151 % of control and the T/C under setting [8] is 205 % of control.
On to `CCOC(=O)c1[nH]c2cccc3c2c1CC(Br)C3=O` (stereo not given), for which the T/C is 98 % of control (dose: 12.0 mg/kg/injection, schedule: Q01DX009 (ip), vehicle: saline with Tween-80); 93 % of control under setting [2]; 100 % of control under setting [6].

The values above are taken from PubChem BioAssay AID200 (DTP/NCI, 2004).
